Data as given in PMC5218480 (PLoS ONE, 2017).

Test system: MV-4-11 cells
Assay: Gene expression microarray analysis (Affymetrix PrimeView) and GSEA
Format: cell-based, human
Parameters: RFU PODN (11730768_x_at) / Fold change /veh PODN (11730768_x_at) / RFU LINC00158 (11744669_a_at) / Fold change /veh LINC00158 (11744669_a_at) / RFU DUSP10 (11751237_a_at) / Fold change /veh DUSP10 (11751237_a_at) / RFU ID3 (11757404_x_at) / Fold change /veh ID3 (11757404_x_at) / RFU PLEKHG5 (11737974_s_at) / Fold change /veh PLEKHG5 (11737974_s_at) / RFU LRRC4B (11730491_at) / Fold change /veh LRRC4B (11730491_at) / RFU GIMAP4 (11747438_a_at) / Fold change /veh GIMAP4 (11747438_a_at) / RFU KRT8 (11758183_x_at) / Fold change /veh KRT8 (11758183_x_at) / RFU CNN1 (11734310_a_at) / Fold change /veh CNN1 (11734310_a_at) / RFU VPS37D (11726825_at) / Fold change /veh VPS37D (11726825_at) / RFU C10orf10 (11716522_x_at) / Fold change /veh C10orf10 (11716522_x_at) / RFU KIR2DL2 /// KIR2DL4 /// KIR2DL5A /// KIR2DL5B /// KIR2DS1 /// KIR2DS2 /// KIR2DS3 /// KIR2DS4 /// KIR3DL3 /// KIR3DL3 /// KIR3DS1 (11738374_at) / Fold change /veh KIR2DL2 /// KIR2DL4 /// KIR2DL5A /// KIR2DL5B /// KIR2DS1 /// KIR2DS2 /// KIR2DS3 /// KIR2DS4 /// KIR3DL3 /// KIR3DL3 /// KIR3DS1 (11738374_at) / RFU C1QL1 (11718748_at) / Fold change /veh C1QL1 (11718748_at) / RFU TMPRSS4 (11747572_a_at) / Fold change /veh TMPRSS4 (11747572_a_at) / RFU HAMP (11756126_x_at) / Fold change /veh HAMP (11756126_x_at) / RFU RNFT2 (11725882_a_at) / Fold change /veh RNFT2 (11725882_a_at) / RFU NR4A2 (11747474_a_at) / Fold change /veh NR4A2 (11747474_a_at) / RFU ABCC12 (11746883_a_at) / Fold change /veh ABCC12 (11746883_a_at) / RFU TMEM136 (11760407_x_at) / Fold change /veh TMEM136 (11760407_x_at) / RFU CLDN22 /// WWC2 (11732394_at) / Fold change /veh CLDN22 /// WWC2 (11732394_at) / RFU HLA-DPB1 (11760878_x_at) / Fold change /veh HLA-DPB1 (11760878_x_at) / RFU SPINT1 (11716480_a_at) / Fold change /veh SPINT1 (11716480_a_at) / RFU GAP43 (11754022_s_at) / Fold change /veh GAP43 (11754022_s_at) / RFU A4GNT (11735810_at) / Fold change /veh A4GNT (11735810_at) / RFU PRB3 (11715151_x_at) / Fold change /veh PRB3 (11715151_x_at) / RFU TUBB4B (11761932_at) / Fold change /veh TUBB4B (11761932_at) / RFU CAPN14 (11732068_a_at) / Fold change /veh CAPN14 (11732068_a_at) / RFU TMCC2 (11721928_a_at) / Fold change /veh TMCC2 (11721928_a_at) / RFU IRGQ (11745062_a_at) / Fold change /veh IRGQ (11745062_a_at) / RFU FAM174B (11720279_a_at) / Fold change /veh FAM174B (11720279_a_at) / RFU TMPRSS4 (11748680_a_at) / Fold change /veh TMPRSS4 (11748680_a_at) / RFU FAM212B (11763350_a_at) / Fold change /veh FAM212B (11763350_a_at) / RFU PLEKHG5 (11743358_a_at) / Fold change /veh PLEKHG5 (11743358_a_at) / RFU ZSCAN30 (11745921_a_at) / Fold change /veh ZSCAN30 (11745921_a_at) / RFU CMKLR1 (11741424_a_at) / Fold change /veh CMKLR1 (11741424_a_at) / RFU LOC101060620 /// MAPK8IP1 (11723275_at) / Fold change /veh LOC101060620 /// MAPK8IP1 (11723275_at) / RFU SPTSSB (11747773_x_at) / Fold change /veh SPTSSB (11747773_x_at) / RFU PRSS12 (11739890_at) / Fold change /veh PRSS12 (11739890_at) / RFU BIN1 (11741810_x_at) / Fold change /veh BIN1 (11741810_x_at) / RFU WNT11 (11732464_a_at) / Fold change /veh WNT11 (11732464_a_at) / RFU C10orf10 (11716521_a_at) / Fold change /veh C10orf10 (11716521_a_at) / RFU C5orf56 (11738089_at) / Fold change /veh C5orf56 (11738089_at) / RFU CYB561 (11721691_x_at) / Fold change /veh CYB561 (11721691_x_at) / RFU ANKRD19P (11752326_a_at) / Fold change /veh ANKRD19P (11752326_a_at) / RFU OR2T12 /// OR2T33 /// OR2T8 (11738714_s_at) / Fold change /veh OR2T12 /// OR2T33 /// OR2T8 (11738714_s_at) / RFU VCAN (11748164_a_at) / Fold change /veh VCAN (11748164_a_at) / RFU JSRP1 (11732532_at) / Fold change /veh JSRP1 (11732532_at) / RFU KRTAP10-11 (11738290_x_at) / Fold change /veh KRTAP10-11 (11738290_x_at) / RFU MYO3A (11730013_a_at) / Fold change /veh MYO3A (11730013_a_at) / RFU EBF3 (11725865_a_at) / Fold change /veh EBF3 (11725865_a_at) / RFU CAMK2N1 (11719241_x_at) / Fold change /veh CAMK2N1 (11719241_x_at) / RFU C5orf56 (11738088_a_at) / Fold change /veh C5orf56 (11738088_a_at) / RFU OLFML3 (11715873_a_at) / Fold change /veh OLFML3 (11715873_a_at) / RFU LOC100653217 /// NTM (11731650_a_at) / Fold change /veh LOC100653217 /// NTM (11731650_a_at) / RFU MAPK11 (11762145_a_at) / Fold change /veh MAPK11 (11762145_a_at) / RFU FIZ1 (11724087_x_at) / Fold change /veh FIZ1 (11724087_x_at) / RFU OASL (11726364_x_at) / Fold change /veh OASL (11726364_x_at) / RFU SOX15 (11748057_x_at) / Fold change /veh SOX15 (11748057_x_at) / RFU CD79A (11719716_a_at) / Fold change /veh CD79A (11719716_a_at) / RFU HIST1H1D (11736915_at) / Fold change /veh HIST1H1D (11736915_at) / RFU CASKIN2 (11723855_a_at) / Fold change /veh CASKIN2 (11723855_a_at) / RFU LOC730098 (11760151_x_at) / Fold change /veh LOC730098 (11760151_x_at) / RFU OR4N2 (11742367_at) / Fold change /veh OR4N2 (11742367_at) / RFU PRRT2 (11749266_a_at) / Fold change /veh PRRT2 (11749266_a_at) / RFU SNX32 (11753110_a_at) / Fold change /veh SNX32 (11753110_a_at) / RFU CDHR5 (11726645_a_at) / Fold change /veh CDHR5 (11726645_a_at) / RFU RCAN1 (11760418_a_at) / Fold change /veh RCAN1 (11760418_a_at) / RFU FAM167A (11723789_a_at) / Fold change /veh FAM167A (11723789_a_at) / RFU FAM26E (11764081_at) / Fold change /veh FAM26E (11764081_at) / RFU ISYNA1 (11749810_s_at) / Fold change /veh ISYNA1 (11749810_s_at) / RFU ACY1 (11761880_at) / Fold change /veh ACY1 (11761880_at) / RFU 11764098_at / Fold change /veh 11764098_at / RFU SAMD14 (11745864_x_at) / Fold change /veh SAMD14 (11745864_x_at) / RFU NPB (11741838_a_at) / Fold change /veh NPB (11741838_a_at) / RFU TMPRSS6 (11731388_a_at) / Fold change /veh TMPRSS6 (11731388_a_at) / RFU KRTAP10-2 (11738614_at) / Fold change /veh KRTAP10-2 (11738614_at) / RFU ARHGAP8 /// PRR5-ARHGAP8 (11727945_x_at) / Fold change /veh ARHGAP8 /// PRR5-ARHGAP8 (11727945_x_at) / RFU KRTAP5-7 /// NADSYN1 (11734609_at) / Fold change /veh KRTAP5-7 /// NADSYN1 (11734609_at) / RFU RASL12 (11751679_a_at) / Fold change /veh RASL12 (11751679_a_at) / RFU CDKN2B (11736163_a_at) / Fold change /veh CDKN2B (11736163_a_at) / RFU PRF1 (11729649_at) / Fold change /veh PRF1 (11729649_at) / RFU, ZNF638 /// ZNF638-IT1 / Fold change vs veh, ZNF638 /// ZNF638-IT1 / RFU, PANK3 / Fold change vs veh, PANK3 / RFU, SH3YL1 / Fold change vs veh, SH3YL1 / RFU, ZEB2 / Fold change vs veh, ZEB2 / RFU, NRIP1 / Fold change vs veh, NRIP1 / RFU, PTTG1IP / Fold change vs veh, PTTG1IP / RFU, CAPN2 / Fold change vs veh, CAPN2 / RFU, MED14 / Fold change vs veh, MED14 / RFU, SNORA58 / Fold change vs veh, SNORA58 / RFU, C1orf63 / Fold change vs veh, C1orf63 / RFU, LRRFIP1 / Fold change vs veh, LRRFIP1 / RFU, NDUFAF7 / Fold change vs veh, NDUFAF7 / RFU, SLC12A2 / Fold change vs veh, SLC12A2 / RFU, IBTK / Fold change vs veh, IBTK / RFU, ESF1 / Fold change vs veh, ESF1 / Fold change vs veh, TMEM50B / RFU, TAOK1 / Fold change vs veh, TAOK1 / RFU, ACBD3 / Fold change vs veh, ACBD3 / RFU, TMA16 / Fold change vs veh, TMA16 / RFU, RWDD3 / Fold change vs veh, RWDD3 / RFU, BCAT1 / Fold change vs veh, BCAT1 / RFU, EDEM3 / Fold change vs veh, EDEM3 / RFU, TMEM33 / Fold change vs veh, TMEM33 / RFU, WDR75 / Fold change vs veh, WDR75 / RFU, AHCTF1 / Fold change vs veh, AHCTF1 / RFU, TFRC / Fold change vs veh, TFRC / RFU, ZDHHC17 / Fold change vs veh, ZDHHC17 / RFU, NOM1 / Fold change vs veh, NOM1 / RFU, ARL8B / Fold change vs veh, ARL8B / RFU, ZBTB11 / Fold change vs veh, ZBTB11 / RFU, TAMM41 / Fold change vs veh, TAMM41 / RFU, KIAA1704 /// LOC100996395 / Fold change vs veh, KIAA1704 /// LOC100996395 / RFU, ING1 / Fold change vs veh, ING1 / RFU, TRMT61B / Fold change vs veh, TRMT61B / RFU, FUBP3 / Fold change vs veh, FUBP3 / RFU, TP53 / Fold change vs veh, TP53 / RFU, TNKS2 / Fold change vs veh, TNKS2 / RFU, ZFP14 / Fold change vs veh, ZFP14 / RFU, ACTR2 / Fold change vs veh, ACTR2 / RFU, PPP3R1 / Fold change vs veh, PPP3R1 / RFU, PIK3R1 / Fold change vs veh, PIK3R1 / RFU, HNRNPA1 / Fold change vs veh, HNRNPA1 / RFU, RNF170 / Fold change vs veh, RNF170 / RFU, ZNF28 / Fold change vs veh, ZNF28 / RFU, RNGTT / Fold change vs veh, RNGTT / RFU, OGT / Fold change vs veh, OGT / RFU, BRD1 / Fold change vs veh, BRD1 / RFU, MARS / Fold change vs veh, MARS / RFU, ZNF655 / Fold change vs veh, ZNF655 / RFU, FAHD1 / Fold change vs veh, FAHD1 / RFU, BDP1 / Fold change vs veh, BDP1 / RFU, LRRCC1 / Fold change vs veh, LRRCC1 / RFU, ARID1A / Fold change vs veh, ARID1A / RFU, ZNF146 / Fold change vs veh, ZNF146 / RFU, ZNF330 / Fold change vs veh, ZNF330 / RFU, GPN3 / Fold change vs veh, GPN3 / RFU, C9orf123 / Fold change vs veh, C9orf123 / RFU, N4BP2L2 / Fold change vs veh, N4BP2L2 / RFU, ARFIP1 / Fold change vs veh, ARFIP1 / RFU, FAM179B / Fold change vs veh, FAM179B / RFU, BCL10 / Fold change vs veh, BCL10 / RFU, UHRF1BP1L / Fold change vs veh, UHRF1BP1L / RFU, BET1 / Fold change vs veh, BET1 / RFU, CNOT2 / Fold change vs veh, CNOT2 / RFU, ZNF268 / Fold change vs veh, ZNF268 / Fold change vs veh, ZNF507 / RFU, DGCR2 / Fold change vs veh, DGCR2 / RFU, WDSUB1 / Fold change vs veh, WDSUB1 / Fold change vs veh, HSP90B1 /// MIR3652 / RFU, ADSS / Fold change vs veh, ADSS / RFU, GK / Fold change vs veh, GK / RFU, ZNF148 / Fold change vs veh, ZNF148 / RFU, TAF9 / Fold change vs veh, TAF9 / RFU, SLC1A5 / Fold change vs veh, SLC1A5 / RFU, SLMO2 / Fold change vs veh, SLMO2 / RFU, ABCC4 / Fold change vs veh, ABCC4 / RFU, LOC101060439 /// RAP1B / Fold change vs veh, LOC101060439 /// RAP1B / RFU, RFX7 / Fold change vs veh, RFX7 / RFU, GTPBP10 / Fold change vs veh, GTPBP10 / RFU, CNEP1R1 / Fold change vs veh, CNEP1R1 / RFU, BIVM-ERCC5 /// ERCC5 / Fold change vs veh, BIVM-ERCC5 /// ERCC5 / RFU, ILF3 / Fold change vs veh, ILF3 / RFU 11762660_at / Fold change /veh 11762660_at / RFU VCAN (11757783_s_at) / Fold change /veh VCAN (11757783_s_at) / RFU DDX43 (11728927_at) / Fold change /veh DDX43 (11728927_at) / RFU KRT8 (11758188_x_at) / Fold change /veh KRT8 (11758188_x_at) / RFU NKD1 (11759106_at) / Fold change /veh NKD1 (11759106_at) / RFU SRD5A1 (11742802_a_at) / Fold change /veh SRD5A1 (11742802_a_at) / RFU TPSAB1 /// TPSB2 (11721975_s_at) / Fold change /veh TPSAB1 /// TPSB2 (11721975_s_at) / RFU GSTM3 (11746129_a_at) / Fold change /veh GSTM3 (11746129_a_at) / RFU IL23R (11737362_x_at) / Fold change /veh IL23R (11737362_x_at) / RFU TMEM51 (11727254_a_at) / Fold change /veh TMEM51 (11727254_a_at) / RFU PIWIL2 (11732686_x_at) / Fold change /veh PIWIL2 (11732686_x_at) / RFU ORM1 (11744905_x_at) / Fold change /veh ORM1 (11744905_x_at) / RFU CCDC152 (11743942_at) / Fold change /veh CCDC152 (11743942_at) / RFU ECM1 (11717891_a_at) / Fold change /veh ECM1 (11717891_a_at) / RFU IL23R (11748794_a_at) / Fold change /veh IL23R (11748794_a_at) / RFU TNFAIP8L3 (11732012_x_at) / Fold change /veh TNFAIP8L3 (11732012_x_at) / RFU MBOAT4 (11741988_at) / Fold change /veh MBOAT4 (11741988_at) / RFU 11764193_at / Fold change /veh 11764193_at / RFU TMEM53 (11763286_at) / Fold change /veh TMEM53 (11763286_at) / RFU MAGEB2 (11727129_at) / Fold change /veh MAGEB2 (11727129_at) / RFU TMEM200A (11744735_a_at) / Fold change /veh TMEM200A (11744735_a_at) / RFU CCDC152 (11751479_a_at) / Fold change /veh CCDC152 (11751479_a_at) / RFU FAM211A (11726209_a_at) / Fold change /veh FAM211A (11726209_a_at) / RFU RGS16 (11746705_a_at) / Fold change /veh RGS16 (11746705_a_at) / RFU VCAN (11755009_s_at) / Fold change /veh VCAN (11755009_s_at) / RFU RHOB (11743442_s_at) / Fold change /veh RHOB (11743442_s_at) / RFU RGS16 (11720943_a_at) / Fold change /veh RGS16 (11720943_a_at) / RFU RGS16 (11720944_at) / Fold change /veh RGS16 (11720944_at) / RFU, VPS4B / Fold change vs veh, VPS4B / RFU, CREB1 / Fold change vs veh, CREB1 / RFU, DNAJC13 / Fold change vs veh, DNAJC13 / RFU, GNAQ / Fold change vs veh, GNAQ / RFU, CDK5R1 / Fold change vs veh, CDK5R1 / RFU, ZRANB3 / Fold change vs veh, ZRANB3 / RFU, CUL4A / Fold change vs veh, CUL4A / RFU, CCNY / Fold change vs veh, CCNY / RFU, UFL1 / Fold change vs veh, UFL1 / RFU, COG3 / Fold change vs veh, COG3 / RFU, DIAPH2 / Fold change vs veh, DIAPH2 / RFU, SKA2 / Fold change vs veh, SKA2 / RFU, AFF3 / Fold change vs veh, AFF3 / RFU, LMF1 / Fold change vs veh, LMF1 / RFU, IPO11 / Fold change vs veh, IPO11 / RFU, DFFB / Fold change vs veh, DFFB / RFU, FOXP1 / Fold change vs veh, FOXP1 / RFU, CARD8 / Fold change vs veh, CARD8 / RFU, STRN3 / Fold change vs veh, STRN3 / RFU, ADK / Fold change vs veh, ADK / RFU, RASSF2 / Fold change vs veh, RASSF2 / RFU, WIPF1 / Fold change vs veh, WIPF1 / RFU, LARP1B / Fold change vs veh, LARP1B / RFU, RASA1 / Fold change vs veh, RASA1 / RFU, RB1 / Fold change vs veh, RB1 / RFU, PPFIA1 / Fold change vs veh, PPFIA1 / RFU, MAT2A / Fold change vs veh, MAT2A / RFU, CCT5 / Fold change vs veh, CCT5 / RFU, WDR92 / Fold change vs veh, WDR92 / RFU, CUX1 / Fold change vs veh, CUX1 / RFU, TTC7A / Fold change vs veh, TTC7A / RFU, TMEM135 / Fold change vs veh, TMEM135 / RFU, DEPTOR / Fold change vs veh, DEPTOR / RFU, CPM / Fold change vs veh, CPM / RFU, DNAJB6 / Fold change vs veh, DNAJB6 / RFU, CACNA2D3 / Fold change vs veh, CACNA2D3 / RFU, DTX4 / Fold change vs veh, DTX4 / RFU, TFCP2 / Fold change vs veh, TFCP2 / RFU, GMCL1 /// GMCL1P1 / Fold change vs veh, GMCL1 /// GMCL1P1 / RFU, AEBP2 / Fold change vs veh, AEBP2 / RFU, SNHG1 /// SNORD22 /// SNORD25 /// SNORD26 /// SNORD27 /// SNORD28 /// SNORD29 /// SNORD31 / Fold change vs veh, SNHG1 /// SNORD22 /// SNORD25 /// SNORD26 /// SNORD27 /// SNORD28 /// SNORD29 /// SNORD31 / Fold change (Aza/veh), C12orf56 (ProbeSet 11735607_a_at) / Fold change (ACY-1035/veh), C12orf56 (ProbeSet 11735607_a_at) / Fold change (Aza/veh), FGFR1OP (ProbeSet 11751329_s_at) / Fold change (ACY-1035/veh), FGFR1OP (ProbeSet 11751329_s_at) / Fold change (Aza/veh), VPS36 (ProbeSet 11739960_a_at) / Fold change (ACY-1035/veh), VPS36 (ProbeSet 11739960_a_at) / RFU SYPL1 (11715823_x_at) / Fold change /veh SYPL1 (11715823_x_at) / RFU IGFBP7 (11715501_s_at) / Fold change /veh IGFBP7 (11715501_s_at) / RFU REEP3 (11722064_at) / Fold change /veh REEP3 (11722064_at) / RFU IGLL1 (11728026_x_at) / Fold change /veh IGLL1 (11728026_x_at): dose or concentration left out as unconfirmed
Details: ProbeSet 11747889_x_at; LIST B

## Nc1ncn([C@@H]2O[C@H](CO)[C@@H](O)[C@H]2O)c(=O)n1 [azacitidine]
  RFU, SH3YL1: 57.53 RFU
